This is an account of results in US4621077A, “Pharmacologically active biphosphonates, process for the preparation thereof and pharmaceutical compositions therefrom” (Istituto Gentili S.p.A., priority 1982, dated 1986).

Data set [1] concerns bone reabsorption (metaphyseal bone density). Briefly: Metaphyseal bone density / inhibition of bone reabsorption in rats treated for 7 days. It counts as in vivo. The settings on record: 7 days, rats.
The next data set concerns skull cells. Briefly: cells. The format is cell-based, Wistar rats. The settings on record: for activity at 2.5 µM / activity at 25 µM / activity at 250 µM: Rattus norvegicus, read-out: Effect on the cellular number ± S.E.M. Here is the method:
(§1) Cellular culture: the cells are cultured according to the method described by Fast et al, (Biochem. J. 172, 97-107 (1978)). By way of summary, the skulls removed from Wistar rats, one day old, are digested with collagenase. The cells set free are placed on a plate with concentration of 200,000 cells per cc of medium in disks "clusters" suitable for culture, the plates having 24 wells of 1.6 cm in diameter containing 0.5 cc of medium. The cells are cultivated in the essential minimum medium containing 10% of foetal calf serum in an atmosphere of 5% CO2 at 37° up to the eighth day. The bisphosphonates are added on the first day up to the end of the experiment. The medium is changed on the first, fourth and seventh day.
The cells are counted with a Coulter counter after they have been set free from the disks by digestion with a mixture of collagenase and trypsin.

A short description of the next data set: in vivo. Conditions: mouse, Swiss mice, read-out: DL50 (the source's name). Here is the method:
For this study Swiss mice, both male and female, have been utilized: during the experiment, the animals are fed according to the method with Altromin in the form of tablets. For the oral and intraperitoneal administration, there are used 5% gum arabic solutions while saline solutions of pH 4 are used for the intravenous injections.
The preliminary values of DL50 are calculated according to a graphic method.

The subject of data set [2] is skull cells (lactate production). In words: cells. It counts as cell-based, Wistar rats. The settings on record: for activity at 2.5 µM / activity at 25 µM / activity at 250 µM: Rattus norvegicus, 16 h, read-out: Effect on the production of lactate ± S.E.M. As for the experimental part: as §1
On the seventh day, the medium is changed and the cells are incubated for 16 hours. The lactate produced during this period is measured in an extract in HClO4 of the medium using lactatodehydrogenase.

For data set [3] the following is noted: for product Ca++ × Pi in solution after incubation: 37° C., two days, control 29, prior to incubation 114.7. Here is the method:
A model system is used to evaluate the ability of the phosphonates to inhibit the formation of crystals in inorganic solutions. Three solutions are prepared according to Fleisch.
The pH is brought to 7.4 by means of potassium hydroxide. The concentration of Ca^++ was 6.7 mg%, a level similar to the calcium in blood which has been subjected to untrafiltration and the concentration of the inorganic phosphate Pi give a product Ca^++ ×Pi=80. The solution was analyzed for Ca^++ and Pi and was distributed in Erlenmeyer flasks 12 cc each. The flasks were divided in groups as follows:
and then they are incubated under stirring at 37° C. for two days.
At the end of incubation, the solutions are passed through "millipore filters" for the purpose of retaining the ctystals which are formed during the incubation; the filtrate then is analyzed for Ca^++ and Pi. The results are also reported in Table 2 as the product of Ca^++ x Pi in the solution at the end of the experiment.

The subject of data set [4] is bone reabsorption and mineralization (tibia, trabecular metaphysis). The format is in vivo, Wistar rats. As for the experimental part: Groups of five Wistar rats of weight 180-200 grams are treated for a period of seven days with 0.1, 1.0 and 10 mg of P/kg of the following biphosphonic acids:
The animals kept as a control were administered the solvent with NaCl. All the treatments were carried out by the subcutaneous route. […] The animals were fed with Altromine 1314 containing 1.1 g/100 g P and 250 IU/100 g of vitamin D3. On the eighth day, the animals were killed and the tibia was removed and fixed in 50% ethanol. The tibiae were then dehydrated in increasing concentration of ethanol and allowed to soak in methylmethacrylate after the addition of Plastoid N. Frontal sections were removed and cut to a thickness of 70-80 μm and then the sections were submitted to microradiography. This procedure permitted to evaluate the density of the mineral in the trabecular metaphysis according to the method of Shenk et al., Calc. Tiss. Res. 11, 196-214, 1973).
One animal per group has been evaluated.

SMILES strings stand for the structures. Read-outs that look alike come from different tables or passages of the source.

On to `O=P(O)(O)C(Cl)(Cl)P(=O)(O)O` [Cl2 MBP, dichloromethanebiphosphonic acid], for which the metaphysical density in data set [1] (0.1 mg P/kg s.c., s.c. NaCl controls 29.72) is recorded as 38.21 % volume of calcified tissue; in data set [1] (1.0 mg P/kg s.c., s.c. NaCl controls 29.72) it was 47.00 % volume of calcified tissue; in data set [1] (2.0 mg P/kg p.o., p.o. NaCl controls 28.45), 31.20 % volume of calcified tissue; in data set [1] (10.0 mg P/kg s.c., s.c. NaCl controls 29.72), 52.65 % volume of calcified tissue. Also, in the data set on skull cells, the “effect on the number of cells, in words” value is “causes a decrease in the number of cells”. Moreover, the activity at 2.5 µM is 103 ± 0.7% in the data set on skull cells (2.5 μM) and 87.5 ± 4% in data set [2] (2.5 μM). The activity at 25 µM was determined as 86.4 ± 2.1% with skull cells (25 μM) and 67.1 ± 2.8% in data set [2] (25 μM). Further, the activity at 250 µM in the data set on skull cells (250 μM) was 54.5 ± 1.9%; in data set [2] (250 μM) it was 16.9 ± 2.2%. The LD50 in the data set “in vivo” (ip) was 750 mg/kg; in the data set “in vivo” (iv) it was 130 mg/kg; in the data set “in vivo” (po, os), > 2000 mg/kg. Moreover, the “effect on the production of lactate, in words” value in data set [2] was “diminishes it”. The “product Ca++ × Pi in solution after incubation” value amounted to 44.0 in data set [3] (0.5 μM), 60.4 in data set [3] (2.5 μM) and 73.6 in data set [3] (5.0 μM).
On to `O=P(O)(O)C(F)(F)P(=O)(O)O` [F2 MBP, difluoromethanebiphosphonic acid], for which the “effect on the number of cells, in words” value with skull cells was “no effect or a very small effect”. Besides, the results for the activity at 2.5 µM (in the data set on skull cells; in data set [2]) were 88.1 ± 1.4% and 112 ± 4.4%, respectively. Moreover, the values for the activity at 25 µM (with skull cells; in data set [2]) were 92.4 ± 1.9% and 106 ± 3.9%, respectively. Further, the activity at 250 µM in the data set on skull cells turned out to be 99.3 ± 2%; in data set [2], 99.7 ± 4.7%. The LD50 was 450 mg/kg in “in vivo” (ip); 70 mg/kg in the data set “in vivo” (iv); > 2000 mg/kg in the data set “in vivo” (po, os). In addition, the “effect on mineralization, in words” value in data set [4] (10 mg of P/kg / high dosage where stated) is reported as “no effect on the bone reabsorption or on the bone mineralization”. Besides, in data set [4] (rat, in vivo), the “effect on bone reabsorption, in words” value is on record as “no effect on the bone reabsorption”. Besides, the “effect on the production of lactate, in words” value in data set [2] was “no effect”. Also, the “product Ca++ × Pi in solution after incubation” value in data set [3] (0.5 μM) was found to be 44.6; in data set [3] (2.5 μM), 58.5; in data set [3] (5.0 μM), 72.0. Also, the “inhibitory activity on the formation and growth of crystals of apatite” value in data set [3] (in vitro) is recorded as “inhibits the growth in vitro of the crystals of apatite”.
